In the supplement of paper PMC10307832:

Legend:
Assay in all cases: relative viability (nuclei count vs DMSO), 5 days (fraction); higher = more cells survive
OSI-027 + Vorinostat = compound: COc1cccc2cc(-c3nc([C@H]4CC[C@H](C(=O)O)CC4)n4ncnc(N)c34)[nH]c12 [OSI-027] + O=C(CCCCCCC(=O)Nc1ccccc1)NO [Vorinostat] (partner 1 µM)
In short: (§1)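 Dosing by pin tool came one day after lung cancer cell lines were seeded in 1536-well plates, using either one drug or a fixed anchor-drug dose plus five library-drug doses (not always all listed) in √10 steps. After 5 days, nuclei were counted on 4× images. Relative viability is treated-well nuclei count divided by vehicle-well nuclei count, and values are medians of duplicate plates.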

Alpelisib + Pictilisib = compound: Cc1nc(NC(=O)N2CCC[C@H]2C(N)=O)sc1-c1ccnc(C(C)(C)C(F)(F)F)c1 [Alpelisib] + CS(=O)(=O)N1CCN(Cc2cc3nc(-c4cccc5[nH]ncc45)nc(N4CCOCC4)c3s2)CC1 [Pictilisib] (partner 1 µM)
In short: as §1

Vemurafenib + Dasatinib = compound: CCCS(=O)(=O)Nc1ccc(F)c(C(=O)c2c[nH]c3ncc(-c4ccc(Cl)cc4)cc23)c1F [Vemurafenib] + Cc1nc(Nc2ncc(C(=O)Nc3c(C)cccc3Cl)s2)cc(N2CCN(CCO)CC2)n1 [Dasatinib] (partner 0.075 µM)
In short: as §1

Alpelisib + Decitabine = compound: Cc1nc(NC(=O)N2CCC[C@H]2C(N)=O)sc1-c1ccnc(C(C)(C)C(F)(F)F)c1 [Alpelisib] + Nc1ncn([C@H]2C[C@H](O)[C@@H](CO)O2)c(=O)n1 [Decitabine] (partner 2 µM)
In short: as §1

Cell Line | relative viability (OSI-027 + Vorinostat; first compound 0.01 µM) | relative viability (OSI-027 + Vorinostat; first compound 0.03162 µM) | relative viability (OSI-027 + Vorinostat; first compound 0.1 µM) | relative viability (OSI-027 + Vorinostat; first compound 0.3162 µM) | relative viability (OSI-027 + Vorinostat; first compound 1 µM) | relative viability (Alpelisib + Pictilisib; first compound 0.04 µM) | relative viability (Alpelisib + Pictilisib; first compound 0.1265 µM) | relative viability (Alpelisib + Pictilisib; first compound 0.4 µM) | relative viability (Alpelisib + Pictilisib; first compound 1.265 µM) | relative viability (Alpelisib + Pictilisib; first compound 4 µM) | relative viability (Vemurafenib + Dasatinib; first compound 0.03162 µM) | relative viability (Vemurafenib + Dasatinib; first compound 0.1 µM) | relative viability (Vemurafenib + Dasatinib; first compound 0.3162 µM) | relative viability (Vemurafenib + Dasatinib; first compound 1 µM) | relative viability (Alpelisib + Decitabine; first compound 0.04 µM) | relative viability (Alpelisib + Decitabine; first compound 0.1265 µM) | relative viability (Alpelisib + Decitabine; first compound 0.4 µM) | relative viability (Alpelisib + Decitabine; first compound 1.265 µM) | relative viability (Alpelisib + Decitabine; first compound 4 µM)
201T | 0.938 | 0.934 | 0.961 | 0.952 | 0.828 | 0.655 | 0.725 | 0.637 | 0.642 | 0.62 | 0.525 | 0.521 | 0.622 | 0.523 | 0.85 | 0.78 | 0.88 | 0.772 | 0.628
A549 | – | – | – | – | – | 0.464 | 0.504 | 0.529 | 0.414 | 0.338 | – | – | – | – | 0.197 | 0.294 | 0.322 | 0.25 | 0.229
A-427 | 0.886 | 0.844 | 0.78 | 0.721 | 0.542 | 0.694 | 0.641 | 0.741 | 0.675 | 0.718 | 0.597 | 0.624 | 0.446 | 0.581 | 0.518 | 0.483 | 0.574 | 0.461 | 0.44
ABC-1 | 0.764 | 1.19 | 0.66 | 0.67 | 0.758 | 0.721 | 0.775 | 1.05 | 0.627 | 0.477 | – | 0.563 | – | 0.567 | 1.15 | 1 | 1.21 | 0.612 | 1.12
BEN | 0.557 | 0.55 | 0.511 | 0.428 | 0.297 | 0.562 | 0.523 | 0.705 | 0.579 | 0.578 | 0.274 | 0.257 | – | 0.309 | 0.776 | 0.679 | 0.837 | 0.693 | 0.749
CAL-12T | 1.06 | 0.585 | 0.68 | 0.535 | 0.321 | 0.388 | – | 0.65 | – | 0.329 | 0.42 | 0.266 | 0.454 | 0.374 | – | – | – | – | –
COR-L23 | 0.524 | 0.436 | 0.403 | 0.408 | 0.297 | 0.744 | 0.79 | 0.865 | 0.594 | 0.636 | 0.423 | 0.503 | 0.443 | 0.482 | 0.423 | 0.427 | 0.438 | 0.333 | 0.355
COR-L 105 | 0.552 | 0.727 | 0.879 | 0.617 | 0.605 | 0.39 | 0.352 | 0.435 | 0.378 | 0.341 | 0.317 | – | – | 0.316 | 0.55 | 0.736 | 0.706 | 0.683 | 0.569
Calu-6 | – | – | – | – | – | 0.86 | 0.945 | 1.09 | 0.819 | 0.841 | – | – | – | – | – | – | – | – | –
ChaGo-K-1 | 0.732 | 0.815 | 0.709 | 0.698 | 0.581 | 0.714 | – | 0.883 | 0.625 | 0.492 | 0.511 | 0.517 | 0.396 | 0.6 | 0.52 | 0.529 | 0.526 | 0.475 | 0.446
EBC-1 | – | – | – | – | – | 0.417 | 0.345 | 0.412 | 0.298 | 0.349 | – | – | – | – | – | – | – | – | –
EKVX | 0.661 | 0.618 | 0.649 | 0.561 | 0.4 | 0.441 | 0.419 | 0.419 | 0.466 | 0.428 | 0.51 | – | 0.661 | 0.515 | 0.313 | 0.17 | 0.389 | 0.312 | 0.283
EMC-BAC-2 | 0.333 | 0.498 | 0.299 | 0.236 | 0.277 | 0.512 | 0.516 | 0.62 | 0.528 | 0.479 | 0.175 | 0.28 | 0.209 | 0.337 | 0.924 | – | 0.965 | 0.72 | 0.747
EPLC-272H | 0.384 | 0.358 | 0.267 | 0.384 | 0.233 | 0.338 | 0.282 | 0.298 | 0.336 | 0.262 | 0.299 | 0.25 | 0.338 | 0.41 | 0.337 | 0.374 | 0.388 | 0.297 | 0.284
H3255 | 0.729 | 0.935 | 0.693 | 0.795 | 0.652 | 0.409 | 0.516 | 0.533 | 0.356 | 0.411 | 0.36 | – | 0.446 | 0.371 | 0.632 | 0.603 | 0.65 | 0.448 | 0.467
HARA | 0.581 | 0.568 | – | 0.507 | 0.251 | 0.3 | 0.488 | 0.459 | 0.326 | 0.244 | 0.272 | 0.215 | 0.195 | 0.201 | 0.387 | 0.556 | 0.514 | 0.377 | 0.432
HCC-15 | 0.835 | 0.838 | 0.779 | 0.616 | 0.424 | 0.721 | 0.673 | 0.822 | 0.716 | 0.63 | 0.551 | 0.67 | – | 0.726 | 0.642 | 0.531 | 0.622 | 0.504 | 0.383
HCC-44 | 1.11 | 1.16 | 1.17 | 1.09 | 0.757 | 0.669 | 0.654 | 0.822 | 0.491 | 0.441 | – | – | – | – | 0.891 | 0.97 | 1.02 | 0.921 | 0.889
HCC-78 | 0.477 | 0.326 | 0.384 | 0.329 | 0.268 | 0.21 | 0.187 | 0.218 | 0.222 | 0.228 | 0.359 | 0.329 | 0.593 | 0.37 | 0.705 | 0.67 | 0.657 | 0.562 | 0.533
HCC-366 | 0.404 | 0.367 | 0.325 | 0.314 | 0.194 | 0.151 | 0.137 | 0.196 | 0.11 | 0.222 | 0.576 | 0.643 | 0.265 | 0.564 | 0.322 | 0.318 | 0.327 | 0.231 | 0.194
